The target in assay [1] is T1, glucosylceramide synthase (Homo sapiens, UniProt Q16739).
T1 construct: Microsomes were isolated from A375 human melanoma cells; endogenous in cells; host or cells: A375 human melanoma cells (microsomal fraction, 100,000 g pellet)
T1 sequence (Q16739 1-394): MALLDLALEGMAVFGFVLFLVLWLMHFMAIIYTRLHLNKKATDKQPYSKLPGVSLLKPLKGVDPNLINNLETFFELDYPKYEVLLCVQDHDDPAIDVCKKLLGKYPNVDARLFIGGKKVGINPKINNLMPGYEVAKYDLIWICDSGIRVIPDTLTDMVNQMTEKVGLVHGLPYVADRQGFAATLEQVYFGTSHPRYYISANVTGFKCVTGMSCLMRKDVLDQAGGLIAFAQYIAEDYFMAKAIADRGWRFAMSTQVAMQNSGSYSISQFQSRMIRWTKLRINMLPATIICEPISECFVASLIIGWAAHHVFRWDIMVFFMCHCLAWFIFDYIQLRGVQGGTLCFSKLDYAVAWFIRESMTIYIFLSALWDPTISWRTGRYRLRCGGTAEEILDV
Description: microsomal assay measuring conversion of ceramide to glucosylceramide by HPLC (GCS IC50). Type of assay: biochemical. The following applies: concentration causing 50% inhibition of glucosylceramide synthase activity. As for the experimental part: Inhibition of glucosylceramide synthase activity for certain compounds of the invention were measured with 1) a microsomal assay that directly measures the conversion of ceramide to glucosylceramide by HPLC and 2) second, cell based, phenotypic assay that monitors cell surface expression of the downstream lipid GM3 by antibody mediated immunofluorescence. The cell based assay was performed in two different cell types, B16 and C32. Cell viability was also assessed in the second, cell-based assay.
The “Compound Number” in the table corresponds to the compound disclosed in the Example of the same number. The results of the microsomal assay are expressed as “GCS IC50”, which represents the concentration of the compound causing 50% inhibition of glucosylceramide synthase activity. The results of the cell based assays (performed in two different cell systems, i.e. B16 mouse melanoma or C32 human melanoma cells) are expressed as “GM3 B16 IC50” or “GM3 C32 IC50” for the B16 assay and the C32 assay, respectively. These values represent the concentration of the compound causing 50% inhibition of GM3 expression on the cell surface. The results of the viability assays are expressed as “Viability, B16 IC50” or “Viability, C32 IC50”, respectively. These values represent the concentration of the compound causing 50% cell death. Values greater than 10 represent a lack of cell death.

For a further assay, the system named is C32 human melanoma cells. Put plainly: cell viability in the C32 cell-based assay (Viability, C32 IC50). The conditions noted are these: concentration causing 50% cell death, values greater than 10 represent a lack of cell death, read-out: Viability, C32 IC50. On the procedure: (§1) The cell based assay was performed in two different cell types, B16 and C32. Cell viability was also assessed in the second, cell-based assay.
(§2) The “Compound Number” in the table corresponds to the compound disclosed in the Example of the same number. […] The results of the cell based assays (performed in two different cell systems, i.e. B16 mouse melanoma or C32 human melanoma cells) are expressed as “GM3 B16 IC50” or “GM3 C32 IC50” for the B16 assay and the C32 assay, respectively. […] The results of the viability assays are expressed as “Viability, B16 IC50” or “Viability, C32 IC50”, respectively. These values represent the concentration of the compound causing 50% cell death. Values greater than 10 represent a lack of cell death.

Assay [2] has as its system GM3 expression on the cell surface, B16 mouse melanoma cells. Put plainly: cell based phenotypic assay, cell surface GM3 by antibody mediated immunofluorescence, B16 (GM3 B16 IC50). The conditions noted are these: 50% inhibition of GM3 expression on the cell surface. On the procedure:
as §1, §2

For assay [3], the system named is GM3 expression on the cell surface, C32 human melanoma cells. Description: cell based phenotypic assay, cell surface GM3 by antibody mediated immunofluorescence, C32 (GM3 C32 IC50). The following applies: 50% inhibition of GM3 expression on the cell surface. As for the experimental part:
as §1, §2

Another assay relates to B16 mouse melanoma cells. Put plainly: cell viability in the B16 cell-based assay (Viability, B16 IC50). The conditions noted are these: concentration causing 50% cell death, values greater than 10 represent a lack of cell death, read-out: Viability, B16 IC50. As for the experimental part:
as §1, §2

The mark [4] stands for this setting: Mus musculus, B16 mouse melanoma cells, read-out: GM3 B16 IC50.
Where [5] appears, read: Homo sapiens, C32 human melanoma cells, read-out: GM3 C32 IC50.
Where [6] appears, read: Mus musculus, read-out: GM3 B16 IC50, B16 mouse melanoma cells.
Where [7] appears, read: Homo sapiens, read-out: GM3 C32 IC50, C32 human melanoma cells.

pIC50: −log10 of the molar value. Read-outs that look alike come from different tables or passages of the source.

For the molecule `CC1(NC(=O)N2CCN(c3ccc(-c4ccccc4)cc3)CC2)CN2CCC1CC2` (stereo not shown) [Example 1, 4-([1,1′-Biphenyl]-4-yl)-N-(3-methylquinuclidin-3-yl)piperazine-1-carboxamide], the pIC50 in assay [1] was 6.14; in the assay on C32 human melanoma cells (Homo sapiens, C32, C32 cells), at most 5.00; in assay [2] (setting [4]), 5.90; in assay [3] (setting [5]) it was 6.96; in the assay on B16 mouse melanoma cells (Mus musculus, B16, B16 cells) it was 5.15.
In the case of `O=C(NC1CN2CCC1CC2)N1CCN(c2ccc(-c3ccccc3)cc2)CC1` (stereo not shown) [Example 2, 4-([1,1′-Biphenyl]-4-yl)-N-(quinuclidin-3-yl)piperazine-1-carboxamide], the pIC50 in assay [1] is 5.16; in the assay on C32 human melanoma cells (Homo sapiens, C32, C32 cells), 5.12; in assay [2] (setting [4]), 5.80; in assay [3] (setting [5]), 6.18; in the assay on B16 mouse melanoma cells (Mus musculus, B16, B16 cells), 5.28.
Consider `O=C(NC1CCN2CCC1CC2)N1CCN(c2ccc(-c3ccccc3)cc2)CC1` (stereo not shown) [Example 3, 4-([1,1′-Biphenyl]-4-yl)-N-(1-azabicyclo[3.2.2]nonan-4-yl)piperazine-1-carboxamide], for which the pIC50 in assay [1] is 4.96; in the assay with C32 human melanoma cells (Homo sapiens, C32, C32 cells) it was 5.60; in assay [2] (setting [4]), 5.16; in assay [3] (setting [5]), 6.00; with B16 mouse melanoma cells (Mus musculus, B16, B16 cells) it was 5.38.
`CC1(NC(=O)N2CCN(c3ccc(-c4ccccc4)cc3)CC2)CCN2CCC1CC2` (stereo not shown) [Example 4, 4-([1,1′-Biphenyl]-4-yl)-N-(4-methyl-1-azabicyclo[3.2.2]nonan-4-yl)piperazine-1-carboxamide]: the pIC50 was 6.00 in assay [1]; 5.20 in the assay on C32 human melanoma cells (Homo sapiens, C32, C32 cells); 5.86 in assay [2] (setting [4]); 7.20 in assay [3] (setting [5]); 5.21 with B16 mouse melanoma cells (Mus musculus, B16, B16 cells).
The like results for `O=C(N1CCN(c2ccc(-c3ccccc3)cc2)CC1)N1CCN2CCC1CC2` [Example 5, (4-([1,1′-Biphenyl]-4-yl)piperazin-1-yl)(1,4-diazabicyclo[3.2.2]nonan-4-yl)methanone] were, in that order, 4.52, 5.70, 5.70, 5.70 and 5.70.
Turning to `O=C(OC1CN2CCC1CC2)N1CCN(c2ccc(-c3ccccc3)cc2)CC1` (stereo not shown) [Example 6, Quinuclidin-3-yl 4-([1,1′-biphenyl]-4-yl)piperazine-1-carboxylate], the pIC50 in assay [1] was 5.25; in the assay on C32 human melanoma cells (C32 cells), 5.39; in assay [2] (setting [6]), 5.45; in assay [3] (setting [7]), 6.00; with B16 mouse melanoma cells (B16 cells), 5.28.
As to `O=C(NC1CN2CCC1CC2)N1CCN(c2ccccc2)CC1` (stereo not shown) [Example 7, 4-Phenyl-N-(quinuclidin-3-yl)piperazine-1-carboxamide], the pIC50 in assay [1] is 4.91; in the assay with C32 human melanoma cells (Homo sapiens, C32, C32 cells) it was at most 5.00; in assay [2] (setting [4]), below 5.00; in assay [3] (setting [5]), 5.15; in the assay with B16 mouse melanoma cells (Mus musculus, B16, B16 cells), at most 5.00.
In the case of `O=C(NC1CCN2CCC1CC2)N1CCN(c2ccccc2)CC1` (stereo not shown) [Example 8, N-(1-Azabicyclo[3.2.2]nonan-4-yl)-4-phenylpiperazine-1-carboxamide], the pIC50 in assay [1] was 5.48; with C32 human melanoma cells (Homo sapiens, C32 cells), at most 5.00; in assay [2] (B16 mouse melanoma cells, read-out: GM3 B16 IC50), below 5.00; in assay [3] (C32 human melanoma cells, read-out: GM3 C32 IC50), 6.29; in the assay on B16 mouse melanoma cells (Mus musculus, B16 cells) it was at most 5.00.
On to `CC1(NC(=O)N2CCN(c3ccccc3)CC2)CN2CCC1CC2` (stereo not shown) [Example 9, N-(3-Methylquinuclidin-3-yl)-4-phenylpiperazine-1-carboxamide], for which the pIC50 is 4.91 in assay [1]; at most 5.00 with C32 human melanoma cells (Homo sapiens, C32, C32 cells); below 5.00 in assay [2] (setting [4]); 5.12 in assay [3] (setting [5]); at most 5.00 with B16 mouse melanoma cells (Mus musculus, B16, B16 cells).
As for `CC1(NC(=O)N2CCN(c3ccccc3)CC2)CCN2CCC1CC2` (stereo not shown) [Example 10, N-(4-Methyl-1-azabicyclo[3.2.2]nonan-4-yl)-4-phenylpiperazine-1-carboxamide], the pIC50 in assay [1] is 4.83; in the assay with C32 human melanoma cells (Homo sapiens, C32, C32 cells) it was at most 5.00; in assay [2] (setting [4]), below 5.00; in assay [3] (setting [5]) it was 5.37; in the assay on B16 mouse melanoma cells (Mus musculus, B16, B16 cells), at most 5.00.
Take `O=C(N1CCN(c2ccccc2)CC1)N1CCN2CCC1CC2` [Example 11, 1,4-Diazabicyclo[3.2.2]nonan-4-yl(4-phenylpiperazin-1-yl)methanone]: the pIC50 in assay [1] was 4.68; in the assay on C32 human melanoma cells (Homo sapiens, C32, C32 cells), at most 5.00; in assay [2] (setting [4]), below 5.00; in assay [3] (setting [5]), below 5.00; in the assay on B16 mouse melanoma cells (Mus musculus, B16, B16 cells), at most 5.00.
For the molecule `O=C(OC1CN2CCC1CC2)N1CCN(c2ccccc2)CC1` (stereo not shown) [Example 12, Quinuclidin-3-yl 4-phenylpiperazine-1-carboxylate], the pIC50 was 4.91 in assay [1]; at most 5.00 in the assay on C32 human melanoma cells (C32 cells); below 5.00 in assay [2] (setting [6]); below 5.00 in assay [3] (setting [7]); at most 5.00 in the assay on B16 mouse melanoma cells (B16 cells).
As to `O=C(NC1CN2CCC1CC2)N1CCN(c2cccc(-c3ccccc3)c2)CC1` (stereo not shown) [Example 13, 4-([1,1′-Biphenyl]-3-yl)-N-(quinuclidin-3-yl)piperazine-1-carboxamide], the pIC50 was 5.61 in assay [1]; at most 5.00 with C32 human melanoma cells (Homo sapiens, C32, C32 cells); 5.17 in assay [2] (setting [4]); 6.16 in assay [3] (setting [5]); 5.07 in the assay with B16 mouse melanoma cells (Mus musculus, B16, B16 cells).
The corresponding values for `O=C(NC1CCN2CCC1CC2)N1CCN(c2cccc(-c3ccccc3)c2)CC1` (stereo not shown) [Example 14, 4-([1,1′-Biphenyl]-3-yl)-N-(1-azabicyclo[3.2.2]nonan-4-yl)piperazine-1-carboxamide] are 6.15, at most 5.00, 5.47, 6.97 and 5.17.
Consider `CC1(NC(=O)N2CCN(c3cccc(-c4ccccc4)c3)CC2)CN2CCC1CC2` (stereo not shown) [Example 15, 4-([1,1′-Biphenyl]-3-yl)-N-(3-methylquinuclidin-3-yl)piperazine-1-carboxamide], for which the pIC50 in assay [1] was 6.08; in the assay with C32 human melanoma cells (Homo sapiens, C32, C32 cells), at most 5.00; in assay [2] (setting [4]) it was 6.43; in assay [3] (setting [5]), 6.76; in the assay with B16 mouse melanoma cells (Mus musculus, B16, B16 cells), at most 5.00.
`CC1(NC(=O)N2CCN(c3cccc(-c4ccccc4)c3)CC2)CCN2CCC1CC2` (stereo not shown) [Example 16, 4-([1,1′-Biphenyl]-3-yl)-N-(4-methyl-1-azabicyclo[3.2.2]nonan-4-yl)piperazine-1-carboxamide]: the pIC50 was 7.31 in assay [1]; 6.00 in the assay with C32 human melanoma cells (Homo sapiens, C32, C32 cells); 6.74 in assay [2] (setting [4]); 7.91 in assay [3] (setting [5]); 5.17 in the assay on B16 mouse melanoma cells (Mus musculus, B16, B16 cells).
The like results for `O=C(N1CCN(c2cccc(-c3ccccc3)c2)CC1)N1CCN2CCC1CC2` [Example 17, (4-([1,1′-Biphenyl]-3-yl)piperazin-1-yl)(1,4-diazabicyclo[3.2.2]nonan-4-yl)methanone] were, in that order, 4.91, at most 5.00, 5.20, 5.20 and at most 5.00.

The pIC50 is the negative decadic logarithm of the IC50, by convention in mol/L.

For the origin of these results see patent US12060349B2, “Glucosylceramide synthase inhibitors” (Genzyme Corporation, priority 2012, dated 2024).
